Legend:
Assay type in all cases: functional
[1] = test system: SK-MEL-2; test: Growth inhibition of human SK-MEL-2 cells assessed as cell growth at 10 uM after 48 hrs by sulforhodamine B assay; settings: SK-MEL-2, 48 h, read-out: Activity
[2] = Growth inhibition of human Hs 578T cells assessed as cell growth at 5X10'-7 M after 48 hrs by sulforhodamine B assay; settings: read-out: Activity
[3] = test system: RXF 393; test: Growth inhibition of human RXF393 cells assessed as cell growth at 10 uM after 48 hrs by sulforhodamine B assay; settings: RXF 393, 48 h, read-out: Activity
[4] = test system: OVCAR-5; test: Growth inhibition of human OVCAR5 cells assessed as cell growth at 5X10'-7 M after 48 hrs by sulforhodamine B assay; settings: OVCAR-5, 48 h, read-out: Activity
[5] = test system: MCF7; test: Growth inhibition of human MCF7 cells assessed as cell growth at 5X10'-9 M after 48 hrs by sulforhodamine B assay; settings: MCF7, 48 h, read-out: Activity
[6] = test system: KM12; test: Growth inhibition of human KM12 cells assessed as cell growth at 10 uM after 48 hrs by sulforhodamine B assay; settings: KM12, 48 h, read-out: Activity
[7] = test system: K562; test: Growth inhibition of human K562 cells after 48 hrs by sulforhodamine B assay; settings: K562, 48 h; for CC50: read-out: LC50 (the source's name)
[8] = test system: SK-MEL-2; test: Growth inhibition of human SK-MEL-2 cells assessed as cell growth at 5X10'-8 M after 48 hrs by sulforhodamine B assay; settings: SK-MEL-2, 48 h, read-out: Activity
[9] = test system: OVCAR-8; test: Growth inhibition of human OVCAR8 cells assessed as cell growth at 5X10'-6 M after 48 hrs by sulforhodamine B assay; settings: OVCAR-8, 48 h, read-out: Activity
[10] = test system: SK-MEL-2; test: Growth inhibition of human SK-MEL-2 cells after 48 hrs by sulforhodamine B assay; settings: SK-MEL-2, 48 h
[11] = test system: SF-268; test: Growth inhibition of human SF268 cells assessed as cell growth at 5X10'-5 M after 48 hrs by sulforhodamine B assay; settings: SF-268, 48 h, read-out: Activity
[12] = test system: SN12C; test: Growth inhibition of human SN12C cells assessed as cell growth at 5X10'-5 M after 48 hrs by sulforhodamine B assay; settings: read-out: Activity
[13] = test system: MOLT-4; test: Growth inhibition of human MOLT4 cells assessed as cell growth at 5X10'-8 M after 48 hrs by sulforhodamine B assay; settings: MOLT-4, 48 h, read-out: Activity
[14] = test system: MCF7; test: Growth inhibition of human MCF7 cells assessed as cell growth at 5X10'-7 M after 48 hrs by sulforhodamine B assay; settings: MCF7, 48 h, read-out: Activity
[15] = test system: SK-OV-3; test: Growth inhibition of human SKOV3 cells after 48 hrs by sulforhodamine B assay; settings: SK-OV-3, 48 h; for CC50: read-out: LC50 (the source's name)
[16] = test system: U-251; test: Growth inhibition of human U251 cells assessed as cell growth at 5X10'-5 M after 48 hrs by sulforhodamine B assay; settings: U-251, 48 h, read-out: Activity
[17] = test system: SN12C; test: Growth inhibition of human SN12C cells assessed as cell growth at 10 uM after 48 hrs by sulforhodamine B assay; settings: read-out: Activity
[18] = test system: A498; test: Growth inhibition of human A498 cells assessed as cell growth at 10 uM after 48 hrs by sulforhodamine B assay; settings: A498, 48 h, read-out: Activity
[19] = test system: UACC-62; test: Growth inhibition of human UACC62 cells assessed as cell growth at 5X10'-6 M after 48 hrs by sulforhodamine B assay; settings: UACC-62, 48 h, read-out: Activity
[20] = test system: HCT-116; test: Growth inhibition of human HCT116 cells assessed as cell growth at 5X10'-5 M after 48 hrs by sulforhodamine B assay; settings: HCT-116, 48 h, read-out: Activity
[21] = test system: SK-OV-3; test: Growth inhibition of human SKOV3 cells assessed as cell growth at 5X10'-7 M after 48 hrs by sulforhodamine B assay; settings: SK-OV-3, 48 h, read-out: Activity
[22] = test system: SNB-75; test: Growth inhibition of human SNB75 cells assessed as cell growth at 5X10'-7 M after 48 hrs by sulforhodamine B assay; settings: SNB-75, 48 h, read-out: Activity
[23] = test system: TK-10; test: Growth inhibition of human TK10 cells assessed as cell growth at 5X10'-9 M after 48 hrs by sulforhodamine B assay; settings: TK-10, 48 h, read-out: Activity
[24] = test system: LOX IMVI; test: Growth inhibition of human LOXIMVI cells after 48 hrs by sulforhodamine B assay
[25] = test system: UACC-257; test: Growth inhibition of human UACC257 cells assessed as cell growth at 5X10'-9 M after 48 hrs by sulforhodamine B assay; settings: UACC-257, 48 h, read-out: Activity
[26] = test system: 786-0; test: Growth inhibition of human 786-0 cells assessed as cell growth at 5X10'-7 M after 48 hrs by sulforhodamine B assay; settings: 786-0, 48 h, read-out: Activity
[27] = test system: HCT-116; test: Growth inhibition of human HCT116 cells assessed as cell growth at 5X10'-9 M after 48 hrs by sulforhodamine B assay; settings: HCT-116, 48 h, read-out: Activity
[28] = test system: SW-620; test: Growth inhibition of human SW620 cells assessed as cell growth at 5X10'-6 M after 48 hrs by sulforhodamine B assay; settings: SW-620, 48 h, read-out: Activity
[29] = test system: UACC-62; test: Growth inhibition of human UACC62 cells after 48 hrs by sulforhodamine B assay; settings: UACC-62, 48 h
[30] = test system: U-251; test: Growth inhibition of human U251 cells assessed as cell growth at 5X10'-7 M after 48 hrs by sulforhodamine B assay; settings: U-251, 48 h, read-out: Activity
[31] = test system: SR; test: Growth inhibition of human SR cells assessed as cell growth at 5X10'-8 M after 48 hrs by sulforhodamine B assay; settings: read-out: Activity
[32] = test system: OVCAR-4; test: Growth inhibition of human OVCAR4 cells assessed as cell growth at 10 uM after 48 hrs by sulforhodamine B assay; settings: OVCAR-4, 48 h, read-out: Activity
[33] = test system: HOP-62; test: Growth inhibition of human HOP62 cells after 48 hrs by sulforhodamine B assay; settings: HOP-62, 48 h; for CC50: read-out: LC50 (the source's name)
[34] = test system: DU-145; test: Growth inhibition of human DU145 cells assessed as cell growth at 10 uM after 48 hrs by sulforhodamine B assay; settings: DU-145, 48 h, read-out: Activity
[35] = test system: HL-60(TB); test: Growth inhibition of human HL-60(TB) cells assessed as cell growth at 5X10'-5 M after 48 hrs by sulforhodamine B assay; settings: HL-60, 48 h, read-out: Activity
[36] = test system: TK-10; test: Growth inhibition of human TK10 cells assessed as cell growth at 5X10'-5 M after 48 hrs by sulforhodamine B assay; settings: TK-10, 48 h, read-out: Activity
[37] = test system: Malme-3M; test: Growth inhibition of human MALME-3M cells assessed as cell growth at 10 uM after 48 hrs by sulforhodamine B assay; settings: read-out: Activity

Molecule `COc1cc(-c2nn(-c3cccc(NC(=O)Nc4cc(C(F)(F)F)cc(C(F)(F)F)c4)c3)cc2-c2ccncc2)ccc1Cl` has a growth at 10 µM [1] of -52.1%, a growth at 0.5 µM [2] of 79% and a growth at 10 µM [3] of -68.1%. It also gave a growth at 0.5 µM [4] of 82%, a growth at 0.005 µM [5] of 92% and a growth at 10 µM [6] of -14.8%. For the same molecule, the GI50 [7] was 0.363 µM, the TGI [7] was 3.25 µM and the CC50 [7] was > 50 µM. The growth at 0.05 µM [8] was 115%, the growth at 5 µM [9] was -6% and the GI50 [10] was 1.02 µM. The LC50 (50% lethal concentration) [10] was 3.71 µM, the TGI [10] was 1.95 µM and the growth at 50 µM [11] was -43%. For the same molecule, the growth at 50 µM [12] was -45%, the growth at 0.05 µM [13] was 105% and the growth at 0.5 µM [14] was 68%. It also gave a GI50 [15] of 1.09 µM, a TGI [15] of 2.57 µM and a CC50 [15] of 15.4 µM. The growth at 50 µM [16] was -78%, the growth at 10 µM [17] was -8.08% and the growth at 10 µM [18] was -14.6%. For the same molecule, the growth at 5 µM [19] was -66%, the growth at 50 µM [20] was -67% and the growth at 0.5 µM [21] was 95%. The growth at 0.5 µM [22] was 81%, the growth at 0.005 µM [23] was 94% and the GI50 [24] was 0.783 µM. It also gave an LC50 [24] of 2.94 µM, a TGI [24] of 1.52 µM and a growth at 0.005 µM [25] of 94%. The growth at 0.5 µM [26] was 92%, the growth at 0.005 µM [27] was 101% and the growth at 5 µM [28] was -51%. The GI50 [29] was 0.661 µM, the LC50 (50% lethal concentration) [29] was 3.78 µM and the TGI [29] was 1.58 µM. It also gave a growth at 0.5 µM [30] of 60%, a growth at 0.05 µM [31] of 103% and a growth at 10 µM [32] of 17.2%. It also gave a GI50 [33] of 0.855 µM, a TGI [33] of 1.59 µM and a CC50 [33] of 2.95 µM. It also gave a growth at 10 µM [34] of 3.89%, a growth at 50 µM [35] of 6% and a growth at 50 µM [36] of -86%. It also gave a growth at 10 µM [37] of -10.7%.
`O=C(Nc1cccc(-n2cc(-c3ccncc3)c(-c3ccc(Cl)c(O)c3)n2)c1)Nc1cccc(C(F)(F)F)c1` showed a growth at 10 µM [1] of -25.6%, a growth at 10 µM [3] of 31.3% and a growth at 10 µM [6] of 2.46%. The GI50 [7] was 1.44 µM, the TGI [7] was > 32.5 µM and the CC50 [7] was > 32.5 µM. The GI50 [10] was 2.02 µM, the LC50 (50% lethal concentration) [10] was > 32.5 µM and the TGI [10] was 10.8 µM. The GI50 [15] was 4.97 µM, the TGI [15] was > 32.5 µM and the CC50 [15] was > 32.5 µM. For the same molecule, the growth at 10 µM [17] was 14.6%, the growth at 10 µM [18] was 17.7% and the GI50 [24] was 2.53 µM. The LC50 [24] was 32.4 µM, the TGI [24] was 9.58 µM and the GI50 [29] was 1.65 µM. For the same molecule, the LC50 (50% lethal concentration) [29] was 21.9 µM, the TGI [29] was 6.91 µM and the growth at 10 µM [32] was 41.5%. For the same molecule, the GI50 [33] was 6.86 µM, the TGI [33] was > 32.5 µM and the CC50 [33] was > 32.5 µM. The growth at 10 µM [34] was 23.1% and the growth at 10 µM [37] was 1.16%.
For `COc1cc(-c2nn(-c3cccc(NC(=O)c4ccc(N5CCOCC5)c(C(F)(F)F)c4)c3)cc2-c2ccncc2)ccc1Cl`, the growth at 10 µM [1] was -8.84%, the growth at 10 µM [3] was -45.2% and the growth at 10 µM [6] was 5.64%. The GI50 [7] was 0.0499 µM, the TGI [7] was > 100 µM and the CC50 [7] was > 100 µM. For the same molecule, the GI50 [10] was 0.291 µM, the LC50 (50% lethal concentration) [10] was > 100 µM and the TGI [10] was 8.24 µM. The GI50 [15] was 0.34 µM, the TGI [15] was 4.73 µM and the CC50 [15] was > 100 µM. The growth at 10 µM [17] was 31%, the growth at 10 µM [18] was -29.7% and the GI50 [24] was 0.371 µM. For the same molecule, the LC50 [24] was > 100 µM, the TGI [24] was 6.2 µM and the GI50 [29] was 0.266 µM. For the same molecule, the LC50 (50% lethal concentration) [29] was > 100 µM, the TGI [29] was 8.2 µM and the growth at 10 µM [32] was 52.6%. The GI50 [33] was 0.583 µM, the TGI [33] was > 100 µM and the CC50 [33] was > 100 µM. It also gave a growth at 10 µM [34] of 10.9% and a growth at 10 µM [37] of 36.2%.

Source: ChEMBL document CHEMBL2440076, “New triarylpyrazoles as broad-spectrum anticancer agents: design, synthesis, and biological evaluation” (Eur J Med Chem, 2013)
